Laboratory results from publication PMC8343220, “The selectivity of α‐adrenoceptor agonists for the human α1A, α1B, and α1D‐adrenoceptors” (Pharmacology Research & Perspectives, 2021).

What was measured:
[1] = molecular target: T1, human α1A‐adrenoceptor (Homo sapiens, UniProt P35348); experiment: ^3H‐prazosin whole‐cell radioligand binding, CHO‐α1A cells
T1 construct: expressed in transfected cells; host or cells: CHO-K1
T1 sequence (P35348 1-466): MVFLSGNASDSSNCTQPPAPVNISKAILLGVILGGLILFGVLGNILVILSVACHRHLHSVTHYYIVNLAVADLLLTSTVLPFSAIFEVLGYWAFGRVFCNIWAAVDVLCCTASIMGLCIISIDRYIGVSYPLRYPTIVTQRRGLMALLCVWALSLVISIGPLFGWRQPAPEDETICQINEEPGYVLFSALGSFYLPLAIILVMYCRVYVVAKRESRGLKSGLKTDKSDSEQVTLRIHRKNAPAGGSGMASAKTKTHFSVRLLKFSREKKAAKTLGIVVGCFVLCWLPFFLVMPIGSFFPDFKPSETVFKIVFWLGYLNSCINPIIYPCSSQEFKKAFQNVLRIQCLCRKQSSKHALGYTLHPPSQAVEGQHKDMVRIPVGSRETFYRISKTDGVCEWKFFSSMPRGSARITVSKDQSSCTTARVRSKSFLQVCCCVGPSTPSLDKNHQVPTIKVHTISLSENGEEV

[2] = molecular target: T2, human α1B‐adrenoceptor (Homo sapiens, UniProt P35368); experiment: ^3H‐prazosin whole‐cell radioligand binding, CHO‐α1B cells; conditions: CHO‐α1B cells; printed as IC50> log value
T2 construct: expressed in transfected cells; host or cells: CHO-K1
T2 sequence (P35368 1-520): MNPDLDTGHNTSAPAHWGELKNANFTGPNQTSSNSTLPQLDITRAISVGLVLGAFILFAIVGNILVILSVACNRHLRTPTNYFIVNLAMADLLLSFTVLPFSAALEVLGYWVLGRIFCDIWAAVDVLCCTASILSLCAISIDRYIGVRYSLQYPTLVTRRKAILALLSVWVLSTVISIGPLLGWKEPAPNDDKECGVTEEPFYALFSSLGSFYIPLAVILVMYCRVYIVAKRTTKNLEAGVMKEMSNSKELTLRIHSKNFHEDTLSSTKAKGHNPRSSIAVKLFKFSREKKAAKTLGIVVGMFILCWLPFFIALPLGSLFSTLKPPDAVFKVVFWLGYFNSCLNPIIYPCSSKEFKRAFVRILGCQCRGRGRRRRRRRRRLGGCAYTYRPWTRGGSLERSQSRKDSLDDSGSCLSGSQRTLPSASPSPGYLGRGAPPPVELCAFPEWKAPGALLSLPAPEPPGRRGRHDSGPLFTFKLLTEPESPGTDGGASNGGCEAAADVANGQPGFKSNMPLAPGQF

[3] = molecular target: T3, human α1D‐adrenoceptor (full length) (Homo sapiens, UniProt P25100); experiment: ^3H‐prazosin whole‐cell radioligand binding, CHO‐α1D cells; conditions: for Kd: CHO‐α1D cells
T3 construct: human α1D‐adrenoceptor (full length) were used; expressed in transfected cells; host or cells: CHO-K1
T3 sequence (P25100 1-572): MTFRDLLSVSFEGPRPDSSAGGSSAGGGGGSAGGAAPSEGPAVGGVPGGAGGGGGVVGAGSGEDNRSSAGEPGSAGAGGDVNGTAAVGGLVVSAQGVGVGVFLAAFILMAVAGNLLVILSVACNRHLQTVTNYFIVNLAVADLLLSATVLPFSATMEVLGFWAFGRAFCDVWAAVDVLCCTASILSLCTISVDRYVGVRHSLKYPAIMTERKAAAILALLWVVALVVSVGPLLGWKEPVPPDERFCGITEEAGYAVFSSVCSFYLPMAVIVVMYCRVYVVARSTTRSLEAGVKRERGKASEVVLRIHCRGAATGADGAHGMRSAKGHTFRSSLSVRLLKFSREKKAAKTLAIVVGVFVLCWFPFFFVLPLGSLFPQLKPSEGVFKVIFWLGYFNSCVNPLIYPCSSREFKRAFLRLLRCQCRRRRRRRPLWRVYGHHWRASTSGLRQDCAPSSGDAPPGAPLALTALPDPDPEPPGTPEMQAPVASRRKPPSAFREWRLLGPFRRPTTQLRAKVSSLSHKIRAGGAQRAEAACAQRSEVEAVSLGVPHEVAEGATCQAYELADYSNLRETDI

[4] = molecular target: T1, human α1A‐adrenoceptor; experiment: Intracellular free calcium mobilization, CHO‐α1A cells; format: cell-based; conditions: CHO‐α1A cells
[5] = molecular target: T2, human α1B‐adrenoceptor; experiment: Intracellular free calcium mobilization, CHO‐α1B cells; format: cell-based; conditions: CHO‐α1B cells
[6] = molecular target: T3, human α1D‐adrenoceptor (full length); experiment: Intracellular free calcium mobilization, CHO‐α1D cells; format: cell-based; conditions: CHO‐α1D cells
[7] = molecular target: T2, human α1B‐adrenoceptor; experiment: ERK1/2‐phosphorylation (Surefire Alphascreen), CHO‐α1B cells; format: cell-based; conditions: CHO‐α1B cells, for bi‐phasic responses the initial stimulatory part
[8] = system: parental CHO cell line without any transfected receptors; experiment: ERK1/2‐phosphorylation, parent CHO cells without transfected receptors; format: cell-based, Chinese hamster; conditions: CHO cells without transfected receptors, mean ± s.e.m.
[9] = molecular target: T1, human α1A‐adrenoceptor; experiment: ^3H‐cAMP accumulation, CHO‐α1A cells; format: cell-based; conditions: CHO‐α1A cells; response at 100 μM ligand, no EC50 obtained
[10] = molecular target: T3, human α1D‐adrenoceptor (full length); experiment: ^3H‐cAMP accumulation, CHO‐α1D cells; format: cell-based; conditions: cAMP accumulation without forskolin
[11] = molecular target: T1, human α1A‐adrenoceptor; experiment: ^3H‐cAMP accumulation in the presence of 10 μM forskolin, CHO‐α1A cells; format: cell-based; conditions: CHO‐α1A cells
[12] = molecular target: T3, human α1D‐adrenoceptor (full length); experiment: ^3H‐cAMP accumulation in the presence of 10 μM forskolin, CHO‐α1D cells; format: cell-based; conditions: CHO‐α1D cells
[13] = system: parental CHO cell line without any transfected receptors; experiment: Forskolin‐stimulated cAMP accumulation, parent CHO cells without transfected receptors; format: cell-based, Chinese hamster; conditions: CHO cells without transfected receptors; in presence of forskolin
[14] = maximal response as % of 10 µM ionomycin
[15] = fold increase of the forskolin response

For `CCNCC(O)c1cccc(O)c1` (stereo not drawn) [Etilefrine], the Kd ([1]; Log KD α1A, ^3H‐prazosin whole cell binding, CHO‐α1A cells, given as log KD (negative), mean ± SEM) was 102 µM, the “Affinity selectivity ratio α1A vs α1B” value ([1]; higher affinity for α1A than α1B) was >9.8 fold and the IC50 [2] was > 1000 µM. For the same compound, the Kd ([3]; 3H‐prazosin binding Log KD, whole‐cell binding (from Table 1), log values given negative) was 35.5 µM, the Kd ([3]; Log KD α1D, ^3H‐prazosin whole cell binding, given as log KD (negative), mean ± SEM, 'early plateau' = specific binding not fully inhibited) was 35.5 µM and the “Affinity selectivity ratio α1A vs α1D” value ([3]; higher affinity for α1D than α1A) was 2.9 fold. For the same compound, the “Affinity selectivity ratio α1B vs α1D” value ([3]; higher affinity for α1D than α1B) was >28.1 fold, the “Log efficacy ratio KD /EC50” value ([4]; binding KD and calcium EC50) was 3.12 and the EC50 ([4]; given as log EC50 (negative), read-out: Intracellular calcium release Log EC50 (converted)) was 0.0776 µM. The “Intracellular calcium release % ionomycin” value [4, 14] was 58.1 ± 2.1%, the EC50 ([5]; given as log EC50 (negative numbers), read-out: Intracellular calcium release Log EC50 (converted)) was 0.0138 µM and the “Log efficacy ratio KD /EC50” value ([5]; intrinsic efficacy ratio, KD from binding / EC50 calcium, log) was >4.86. For the same compound, the “Intracellular calcium release % ionomycin” value ([5]; maximal response as % of 10 µM ionomycin response) was 61.1 ± 2.1%, the “Log efficacy ratio KD /EC50” value ([6]; intrinsic efficacy ratio, binding KD / calcium EC50) was 1.42 and the EC50 ([6]; log values given negative, read-out: Intracellular calcium release Log EC50 (converted)) was 1.35 µM. For the same compound, the “Intracellular calcium release % ionomycin” value [6, 14] was 13.7 ± 1.8%, the EC50 ([7]; read-out: ERK1/2‐phosphorylation Log EC50 (converted)) was 0.302 µM and the “ERK1/2‐phosphorylation % PDBu” value ([7]; maximal response as % PDBu response) was 78.8 ± 6.1%. The “ERK1/2-phosphorylation % PDBu” value ([8]; maximal response as % of PDBu (10μM) response) was “No response”, the “ERK1/2-phosphorylation Log EC50” value [8] was “No response” and the “cAMP accumulation % forskolin at 100 µM” value [9] was 82.7 ± 5.5%. The “cAMP Log EC50” value [10] was “No response”, the EC50 ([11]; 10 μM forskolin, read-out: cAMP accumulation (in presence of forskolin) Log EC50 (converted)) was 1.29 µM and the “cAMP accumulation (in presence of forskolin) Fold increase” value [11, 15] was 2.17 ± 0.08 fold. For the same compound, the “cAMP (in presence of forskolin) Fold increase” value [12, 15] was 1.18 ± 0.04, the EC50 ([12]; in presence of forskolin, log values given negative) was 0.759 µM and the “cAMP accumulation (in presence of forskolin) Log EC50” value [13] was “No response”.
